Experimental data taken from patent US20030083239A1, “Chemokine receptor CCR3 antagonists” (priority 1999, published 2003).
Where two headings read alike, the source gives them in different places. One block for each molecule: values may come before it. Ends that are not written are not given here. Peptide text beside a SMILES is read from it.

How the values were obtained:
human eosinophils [1] = assay: Cell viability by MTT incorporation; assay type: cell-based; conditions: after 24 hours
Experimental: In FIG. 5, cell viability in presence of SC004411 was assayed with MTT incorporation. […] The data are representative of three independent experiments.

CCR3 = target: T1, CCR3 (Homo sapiens, UniProt P51677); assay: Binding specificity, CCR3 transfected in 293 cells; conditions: CCR3 transfected 293 cells; peptide at 10 μM (FIG. 4 legend)
T1 construct: expressed in transfected cells; host or cells: 293 cells
T1 sequence (P51677 1-355): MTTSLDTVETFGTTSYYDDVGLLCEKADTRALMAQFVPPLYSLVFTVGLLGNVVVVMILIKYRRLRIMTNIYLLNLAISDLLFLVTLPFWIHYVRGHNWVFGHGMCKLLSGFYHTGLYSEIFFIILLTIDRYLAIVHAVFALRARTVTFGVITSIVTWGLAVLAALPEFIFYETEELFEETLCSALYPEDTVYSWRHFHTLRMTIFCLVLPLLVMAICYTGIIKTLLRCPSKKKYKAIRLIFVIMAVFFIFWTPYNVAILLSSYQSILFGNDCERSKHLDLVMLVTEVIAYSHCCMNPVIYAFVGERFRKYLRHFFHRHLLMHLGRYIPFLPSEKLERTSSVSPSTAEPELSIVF
Experimental: (§1) Chemokine binding to the target cells, human eosinophils and 293/CCR3 cells, was carried out using a modification of a method previously reported. Cells were washed once in PBS and resuspended in binding buffer (50 mM HEPES, 1 mM CaCl2, 5 mM MgCl2, and 0.5% BSA) at a concentration of 1×10^7/mL. Aliquots of 50 μL (5×10^5 cells) were dispensed into microfuge tubes, followed by the addition of cold and radiolabeled chemokines. The final reaction volume was 200 μL. Nonspecific binding was determined by incubating cells with radiolabeled chemokines in the presence of increasing amounts of (250-500 nM) of cold chemokine. After 60-min incubation, at room temperature, the cells were washed three times with 1 ml of binding buffer plus 0.5 M NaCl. Cell pellets were then counted. All experiments were carried out using duplicates and repeated at least three times. Curve fit was calculated by Kaleidagraph™ software (Synergy Software, Reading, Pa.). Inhibition of binding was assessed by the addition of test inhibitor compound at the indicated concentrations, and incubation for 30 min prior to addition of the chemokine as above.
(§2) The compound was used in the binding assay to compete with CXCR4, CXCR2, CCR2, and CCR3 transfected in 293 cells. […] The data are representative of three independent experiments.

human eosinophils [2] = assay: Cytotoxicity, lysis of 51Cr-labeled cells; assay type: cell-based; conditions: cells cultured in presence of the peptide
Experimental: To exclude the possible contribution of cytotoxicity of the hexapeptides to the inhibition of eosinophil function, ^51Cr-labeled cells were cultured in presence of the peptide for the indicated time.

human eosinophils [3] = assay type: cell-based
Experimental: Human eosinophils were prepared by isolation from the blood of donor individuals with high levels of circulating blood eosinophils (5-17%) by combining density gradient centrifugation and negative selection with anti-CD16 magnetic beads. Briefly, the granulocyte fraction from the Percoll centrifugation was incubated with CD16 micro beads (miniMACS™, separation unit) for 30 minutes. Cells were then passed through a MACS™ column (Miltenyi Biotec, Inc., Auburn, Calif.) and eosinophils were collected in the flow through. Eosinophil purity was >98% as determined by analysis of Diff-Quik™ (Baxter) stained cytocentrifugation preparations by light microscopy. Intracellular free calcium was measured using the fluorescent probe Fluo-3. Cell suspensions (10^7 cells/ml) were loaded with Fluo-3/AM (1 μM, 30 minutes at 37° C), washed, resuspended at 2×10^6 cells/ml in Hanks' balanced salt solution (HBSS) and their fluorescence monitored in a spectrofluorometer (SLM 8000, SLM-Aminco, Champagne, Ill., USA) (excitation and emission wavelengths, 500 and 530 nm, respectively) The internal calcium concentrations were calculated as described in Tsien et al. (J. Cell. Biol. 94: 3325-3334, 1982). Each assay was individually calibrated.

CCR2 = target: T2, CCR2 (Homo sapiens, UniProt P41597); assay: Binding specificity, CCR2 transfected in 293 cells; conditions: CCR2 transfected 293 cells; peptide at 10 μM (FIG. 4 legend)
T2 construct: expressed in transfected cells; host or cells: 293 cells
Experimental: as §1, §2

human eosinophils [4] = assay type: cell-based; remark: listed apart in the source
CXCR4 = target: T3, CXCR4 (Homo sapiens, UniProt P61073); assay: Binding specificity, CXCR4 transfected in 293 cells; conditions: CXCR4 transfected 293 cells; peptide at 10 μM (FIG. 4 legend)
T3 construct: expressed in transfected cells; host or cells: 293 cells
Experimental: as §1, §2

human eosinophils [5] = assay type: cell-based; remark: listed apart in the source
Experimental: Human eosinophils were prepared by isolation from the blood of donor individuals with high levels of circulating blood eosinophils (5-17%) by combining density gradient centrifugation and negative selection with anti-CD16 magnetic beads. Briefly, the granulocyte fraction from the Percoll centrifugation was incubated with CD16 micro beads (miniMACS™, separation unit) for 30 minutes. Cells were then passed through a MACS™ column (Miltenyi Biotec, Inc., Auburn, Calif.) and eosinophils were collected in the flow through. Eosinophil purity was >98% as determined by analysis of Diff-Quik™ (Baxter) stained cytocentrifugation preparations by light microscopy. Leukocyte chemotaxis was assessed on eosinophils, using a modification of a transendothelial assay. The endothelial cells used in this assay were the endothelial cell line, ECV 304, obtained from the European collection of Animal Cell Cultures (Porton Downs, Salisbury, U.K.). Endothelial cells were cultured on 6.5 mm diameter Transwell™ culture inserts (Costar Corp., Cambridge, Mass.) with 3.0 μm pore size. The assay media consisted of equal parts RPMI 1640 and M199 with 0.5% BSA. […] The cells that had migrated to the bottom chamber were counted using flow cytometry. […] Inhibitor potency was determined by comparison of cell numbers migrated to the bottom chamber, with or without inhibitor. […]

CXCR2 = target: T4, CXCR2 (Homo sapiens, UniProt P25025); assay: Binding specificity, CXCR2 transfected in 293 cells; conditions: CXCR2 transfected 293 cells; peptide at 10 μM (FIG. 4 legend)
T4 construct: expressed in transfected cells; host or cells: 293 cells
T4 sequence (P25025 1-360): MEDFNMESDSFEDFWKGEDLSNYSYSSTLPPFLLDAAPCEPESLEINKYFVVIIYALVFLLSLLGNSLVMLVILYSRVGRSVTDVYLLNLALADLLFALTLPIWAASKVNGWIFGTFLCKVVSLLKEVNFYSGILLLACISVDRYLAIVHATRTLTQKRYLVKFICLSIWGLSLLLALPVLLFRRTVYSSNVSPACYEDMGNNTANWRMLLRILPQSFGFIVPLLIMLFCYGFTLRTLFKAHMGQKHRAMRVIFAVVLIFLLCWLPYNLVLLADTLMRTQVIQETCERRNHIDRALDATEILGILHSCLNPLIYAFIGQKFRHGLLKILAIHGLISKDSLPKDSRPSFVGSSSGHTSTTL
Experimental: as §1, §2

[6] = target: T5, CCR3 on human eosinophils (human, UniProt P51677 1-355); assay: cell-based or functional assay
T5 sequence (looked up): T1 sequence (P51677 1-355)

[7] = target: T5, CCR3 on human eosinophils; assay: competition with 125I-eotaxin (0.3 nM) for CCR3 on human eosinophils, filtration radioligand assay

T2 sequence (P41597 whole entry, species assumed): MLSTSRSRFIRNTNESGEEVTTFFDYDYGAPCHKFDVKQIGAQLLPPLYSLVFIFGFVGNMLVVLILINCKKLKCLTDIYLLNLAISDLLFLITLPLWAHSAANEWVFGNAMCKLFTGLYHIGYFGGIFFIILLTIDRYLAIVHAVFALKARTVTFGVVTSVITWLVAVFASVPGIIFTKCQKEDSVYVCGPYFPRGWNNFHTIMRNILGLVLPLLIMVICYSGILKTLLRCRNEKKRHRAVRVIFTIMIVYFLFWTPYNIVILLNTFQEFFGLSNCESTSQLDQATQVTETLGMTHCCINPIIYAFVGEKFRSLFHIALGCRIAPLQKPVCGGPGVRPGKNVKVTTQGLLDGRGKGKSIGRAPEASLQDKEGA
T3 sequence (P61073 whole entry, species assumed): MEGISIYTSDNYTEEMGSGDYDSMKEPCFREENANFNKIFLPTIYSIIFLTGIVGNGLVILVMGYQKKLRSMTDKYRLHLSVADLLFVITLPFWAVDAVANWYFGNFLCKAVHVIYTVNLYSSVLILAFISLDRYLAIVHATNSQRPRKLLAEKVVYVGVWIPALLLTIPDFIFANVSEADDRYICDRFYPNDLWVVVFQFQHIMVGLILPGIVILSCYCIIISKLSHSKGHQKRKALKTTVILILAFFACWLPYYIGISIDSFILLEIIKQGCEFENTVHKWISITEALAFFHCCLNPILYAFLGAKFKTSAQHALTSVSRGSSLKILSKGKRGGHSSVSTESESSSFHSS

inhibition of eotaxin-binding to CCR3 (CCR3): specifically inhibited
IC50 (human eosinophils [3]): ~40 µM
inhibition of binding to CCR2 (CCR2): not
inhibition of binding to CXCR4 (CXCR4): not
IC50 (human eosinophils [5]): ~20 µM
inhibition of binding to CXCR2 (CXCR2): not
Molecule: CC(=O)N[C@@H](CS)C(=O)N[C@@H](CCCNC(=N)N)C(=O)N[C@@H](CS)C(=O)N[C@@H](C)C(=O)N[C@@H](C)C(=O)N[C@@H](CCCNC(=N)N)C(N)=O [SC004411, CRCAAR] (Ac-CRCAAR-NH2; N-terminus and C-terminus assumed)
concentration at which the compound starts to be toxic (MTT viability) (human eosinophils [1]): above 100 μM
cell lysis of 51Cr-labeled human eosinophils (human eosinophils [2]): did not cause cell lysis
toxicity by Trypan Blue exclusion (human eosinophils [4]): not toxic

inhibition of eotaxin-induced calcium mobilization of human eosinophils (functional IC50) [6]: ~40 µM
inhibition of eotaxin-induced chemotaxis of human eosinophils (functional IC50) [6]: ~20 µM
IC50 [7]: ~40 µM
B1: hexamer peptide CRCAAR (SEQ ID NO: 1), peptide SC004411 (peptide)
peptide: CRCAAR
modifications: not fully specified; cysteine pairing not given here
notes: Synthetic hexapeptide; also called compound SC004411
